Molecules are shown by their SMILES.

Among the data in US8912169B2, “Beta-lactamase inhibitors” (VenatoRx Pharmaceuticals, Inc., priority 2012, dated 2014) are IC50 values, retold here.

Common to all, as to format: biochemical
One test has as its target T1, SHV-5 (Klebsiella pneumoniae, UniProt P0A3M1).
T1 construct: made in house; host or cells: E. coli BL21(DE3)
Briefly: β-lactamase enzyme inhibition, SHV-5. How it is done: (§1) For SHV-5, Kpc-2, p99AmpC and OXA-1 β-lactamases, E. coli BL21(DE3) bacterial cells carrying expression plasmids (expressed as native untagged proteins) for the individual β-lactamases were grown in 1 L of Superbroth (Teknova Inc. Hollister, Calif.) supplemented with 100 μg/mlkanamycin selection and 1×5052 (0.5% glycerol, 0.05% glucose and 0.2% α-lactose) at 35° C. for 18-20 hours. Cells were harvested by centrifugation (4,000×g, 4° C., 20 min), resuspended in 50 ml of 10 mM HEPES pH 7.5 ( 1/20 of the initial volume). The cells were lysed by sonication (5 pulses of 45 seconds) at 45 W on ice. The lysates were clarified by centrifugation at 10,000×g for 40 minutes at 4° C. Samples were diluted 5-fold in 50 mM sodium acetate pH 5.0, stored overnight at 4° C., after which they were centrifuged at 10,000×g for 30 minutes to clarify, and filtered through 0.45 μm filters. The samples were loaded onto a 5 ml Capto S sepharose cation exchange column (GE Healthcare) pre-equilibrated with 50 mM sodium acetate pH 5.0. The column was washed with 5 column volumes of 50 mM sodium acetate pH 5.0 to wash out unbound protein and a linear gradient of NaCl (0 to 500 mM) was used to elute the protein (over 16 CV) from the column. Fractions were assayed for β-lactamase activity using Centa (Calbiochem, Gibbstown, N.J.) or Nitrocefin (EMD Millipore chemicals, Darmstadt, Germany) as a reporter β-lactamase substrate for activity in the isolated fractions. Active fractions were pooled, concentrated and further purified by gel filtration chromatography on a Superdex 75 prep grade gel filtration column (GE Healthcare, Piscataway, N.J.) pre-equilibrated in 50 mM Hepes pH 7.5, 150 mM NaCl. Active fractions were pooled concentrated, quantitated by BCA protein determination (Thermo Scientific, Rockford, Ill.), dialyzed into PBS and frozen at −80° C. in 20% glycerol until use.
(§2) An equal volume of diluted enzyme stock was added, and the plates were incubated at 37° C. for 15 min. Nitrocefin was used as substrate for p99 AmpC, VIM-2 and OXA-1 and dispensed into each well at a final concentration of 100 μM. Absorbance at 486 nm was immediately monitored for 10 min using a Biotek Powerwave XS2 microplate spectrophotometer using the GENS software package (Biotek Instruments, Winooski Vt.). In an analogous fashion, imipenem was used as substrate for Kpc-2 and Cefotaxime was used for SHV-5, while changes in absorbance upon hydrolysis of the β-lactam ring were monitored at 300 nm and 260 nm respectively in UV-transparent 96-well microtiter assay plates. Maximum rates of hydrolysis were compared to those in control wells (without inhibitors), and percentages of enzyme inhibition were calculated for each concentration of inhibitor. The concentration of inhibitor needed to reduce the initial rate of hydrolysis of substrate by 50% (IC50) was calculated as the residual activity of β-lactamase at 486 nm using GraFit version 7 kinetics software package (Erithacus Software, Surrey, UK).
(§3) Using the methodology described above, examples of the current invention were evaluated for their ability to inhibit β-lactamase enzymes from all four Ambler classifications (A through D). […] NT=Not tested.

Another test concerns the target T2, KPC-2 (Klebsiella pneumoniae, UniProt Q9F663).
T2 construct: made in house; host or cells: E. coli BL21(DE3)
Briefly: β-lactamase enzyme inhibition, KPC-2. To be noted: substrate imipenem, 300 nm; read-out: Class A KPC-2 IC50. How it is done: as §1, §2, §3

The target of the next test is T3, VIM-2 (Escherichia coli, UniProt Q5U7L7).
T3 construct: made in house; host or cells: E. coli BL21(DE3)
Briefly: β-lactamase enzyme inhibition, VIM-2. As to conditions: substrate Nitrocefin 100 μM, 486 nm; read-out: Class B VIM-2 IC50. The method, then:
For Vim-2 metallo β-lactamase, the procedure was identical with the following exceptions, first the protein was not pH adjusted to pH 5 with 50 mM sodium acetate, second, the chromatography step was changed to a 5 ml Q sepharose anion exchange column pre-equilibrated with 50 mM Hepes pH 7.5, and elution of the protein was achieved by a linear gradient of NaCl (0-600 mM). Finally, the VIM-2 purification required a second run (3rd step) on the Q sepharose anion exchange column to achieve acceptable purity (>90%).
as §2, §3

For the next test, the target named is T4, p99 AmpC (Enterobacter cloacae, UniProt P05364).
T4 construct: made in house; host or cells: E. coli BL21(DE3)
Briefly: β-lactamase enzyme inhibition, p99 AmpC. How it is done:
as §1, §2, §3

The next test concerns the target T5, OXA-1 (Escherichia coli, UniProt P13661).
T5 construct: made in house; host or cells: E. coli BL21(DE3)
Briefly: β-lactamase enzyme inhibition, OXA-1. To be noted: substrate Nitrocefin 100 μM, 486 nm; read-out: Class D OXA-1 IC50. How it is done: as §1, §2, §3

Take `NCC1CCC(=CC(=O)N[C@H]2Cc3cccc(C(=O)O)c3OB2O)CC1` (stereo partly drawn) [Example 11, (3R)-3-(2-(4-(aminomethyl)cyclohexylidene)acetamido)-2-hydroxy-3,4-dihydro-2H-benzo[e][1,2]oxaborinine-8-carboxylic acid]: the IC50 at SHV-5 is 0.1 to 1 µM; at KPC-2 it was 1 to 10 µM; at VIM-2, 1 to 10 µM; at p99 AmpC, < 0.1 µM; at OXA-1 it was 0.1 to 1 µM.
As for `NCC1CCC(CC(=O)N[C@H]2Cc3cccc(C(=O)O)c3OB2O)(C[N+](=O)[O-])CC1` (stereo partly drawn) [Example 12, (R)-3-(2-(4-(aminomethyl)-1-(nitromethyl)cyclohexyl)acetamido)-2-hydroxy-3,4-dihydro-2H-benzo[e][1,2]oxaborinine-8-carboxylic acid], the IC50 against SHV-5 was 0.1 to 1 µM; on KPC-2 it was 0.1 to 1 µM; at VIM-2, 1 to 10 µM; against p99 AmpC, < 0.1 µM; on OXA-1 it was 0.1 to 1 µM.
As to `NC[C@H](N)C(=O)N[C@H]1CC[C@H](CC(=O)N[C@H]2Cc3cccc(C(=O)O)c3OB2O)CC1` [Example 13, (R)-3-(2-(trans-4-((S)-2,3-diaminopropanamido)cyclohexyl)acetamido)-2-hydroxy-3,4-dihydro-2H-benzo[e][1,2]oxaborinine-8-carboxylic acid], the IC50 against SHV-5 is < 0.1 µM; on KPC-2, < 0.1 µM; at VIM-2, 0.1 to 1 µM; on p99 AmpC, < 0.1 µM; at OXA-1 it was < 0.1 µM.
Take `CN(C)[C@H]1CC[C@H](CC(=O)N[C@H]2Cc3cccc(C(=O)O)c3OB2O)CC1` [Example 14, (R)-3-(2-(trans-4-(dimethylamino)cyclohexyl)acetamido)-2-hydroxy-3,4-dihydro-2H-benzo[e][1,2]oxaborinine-8-carboxylic acid]: the IC50 was < 0.1 µM on SHV-5; < 0.1 µM on KPC-2; 0.1 to 1 µM at VIM-2; < 0.1 µM against p99 AmpC; < 0.1 µM at OXA-1.
With `NCCN[C@H]1CC[C@H](CC(=O)N[C@H]2Cc3cccc(C(=O)O)c3OB2O)CC1` [Example 15, (R)-3-(2-(trans-4-(2-aminoethylamino)cyclohexyl)acetamido)-2-hydroxy-3,4-dihydro-2H-benzo[e][1,2]oxaborinine-8-carboxylic acid], the IC50 at SHV-5 is < 0.1 µM; on KPC-2 it was < 0.1 µM; on VIM-2 it was < 0.1 µM; against p99 AmpC, < 0.1 µM; on OXA-1, 0.1 to 1 µM.
For `O=C(C[C@H]1CC[C@H](N2CCNCC2)CC1)N[C@H]1Cc2cccc(C(=O)O)c2OB1O` [Example 16, (R)-2-hydroxy-3-(2-(trans-4-(piperazin-1-yl)cyclohexyl)acetamido)-3,4-dihydro-2H-benzo[e][1,2]oxaborinine-8-carboxylic acid], the IC50 was < 0.1 µM against SHV-5; < 0.1 µM on KPC-2; 1 to 10 µM on VIM-2; < 0.1 µM against p99 AmpC; < 0.1 µM at OXA-1.
`O=C(C[C@H]1CC[C@@H](N2CCNCC2)CC1)N[C@H]1Cc2cccc(C(=O)O)c2OB1O` [Example 17, (R)-2-hydroxy-3-(2-(cis-4-(piperazin-1-yl)cyclohexyl)acetamido)-3,4-dihydro-2H-benzo[e][1,2]oxaborinine-8-carboxylic acid]: the IC50 is 0.1 to 1 µM on SHV-5; < 0.1 µM at KPC-2; 1 to 10 µM on VIM-2; < 0.1 µM against p99 AmpC; 0.1 to 1 µM on OXA-1.
As for `N[C@H]1CC[C@H](CCC(=O)N[C@H]2Cc3cccc(C(=O)O)c3OB2O)CC1` [Example 21, (R)-3-(3-(trans-4-aminocyclohexyl)propanamido)-2-hydroxy-3,4-dihydro-2H-benzo[e][1,2]oxaborinine-8-carboxylic acid], the concentration for half-maximal inhibition (IC50) against SHV-5 is < 0.1 µM; on KPC-2 it was < 0.1 µM; on VIM-2, 1 to 10 µM; at p99 AmpC, < 0.1 µM; at OXA-1 it was < 0.1 µM.
In the case of `N=C(N)N[C@H]1CC[C@H](CCC(=O)N[C@H]2Cc3cccc(C(=O)O)c3OB2O)CC1` [Example 22, (R)-3-(3-(trans-4-guanidinocyclohexyl)propanamido)-2-hydroxy-3,4-dihydro-2H-benzo[e][1,2]oxaborinine-8-carboxylic acid], the IC50 against SHV-5 is < 0.1 µM; on KPC-2, < 0.1 µM; at VIM-2, 0.1 to 1 µM; against p99 AmpC, < 0.1 µM; at OXA-1, < 0.1 µM.
On to `CN(C)CCN(C)[C@H]1CC[C@H](CC(=O)N[C@H]2Cc3cccc(C(=O)O)c3OB2O)CC1` [Example 23, (R)-3-(2-(trans-4-((2-(dimethylamino)ethyl)(methyl)amino)cyclohexyl)acetamido)-2-hydroxy-3,4-dihydro-2H-benzo[e][1,2]oxaborinine-8-carboxylic acid], for which the IC50 against SHV-5 is < 0.1 µM; on KPC-2 it was < 0.1 µM; at VIM-2, 0.1 to 1 µM; at p99 AmpC, < 0.1 µM; at OXA-1, 0.1 to 1 µM.
Take `N=C(N)NCCN[C@H]1CC[C@H](CC(=O)N[C@H]2Cc3cccc(C(=O)O)c3OB2O)CC1` [Example 25, (R)-3-(2-(trans-4-(2-guanidinoethylamino)cyclohexyl)acetamido)-2-hydroxy-3,4-dihydro-2H-benzo[e][1,2]oxaborinine-8-carboxylic acid]: the IC50 at SHV-5, on KPC-2, at VIM-2, against p99 AmpC and at OXA-1 was < 0.1 µM each time.
In the case of `O=C(C[C@H]1CC[C@H](NCCO)CC1)N[C@H]1Cc2cccc(C(=O)O)c2OB1O` [Example 26, (R)-2-hydroxy-3-(2-(trans-4-(2-hydroxyethylamino)cyclohexyl)acetamido)-3,4-dihydro-2H-benzo[e][1,2]oxaborinine-8-carboxylic acid], the IC50 at SHV-5 is < 0.1 µM; at KPC-2 it was < 0.1 µM; at VIM-2, 1 to 10 µM; at p99 AmpC it was < 0.1 µM; on OXA-1, 0.1 to 1 µM.
As to `O=C(C[C@H]1CC[C@H](NCc2cccnc2)CC1)N[C@H]1Cc2cccc(C(=O)O)c2OB1O` [Example 27, (R)-2-hydroxy-3-(2-(trans-4-(pyridin-3-ylmethylamino)cyclohexyl)acetamido)-3,4-dihydro-2H-benzo[e][1,2]oxaborinine-8-carboxylic acid], the IC50 is < 0.1 µM at SHV-5; < 0.1 µM on KPC-2; 0.1 to 1 µM on VIM-2; < 0.1 µM on p99 AmpC; < 0.1 µM at OXA-1.
For the molecule `O=C(O)CN[C@H]1CC[C@H](CC(=O)N[C@H]2Cc3cccc(C(=O)O)c3OB2O)CC1` [Example 28, (R)-3-(2-(trans-4-(carboxymethylamino)cyclohexyl)acetamido)-2-hydroxy-3,4-dihydro-2H-benzo[e][1,2]oxaborinine-8-carboxylic acid], the IC50 against SHV-5 is < 0.1 µM; at KPC-2, < 0.1 µM; at VIM-2 it was 1 to 10 µM; on p99 AmpC, < 0.1 µM; at OXA-1 it was 0.1 to 1 µM.

As usually defined, the IC50 is the midpoint of a concentration-inhibition curve.
